Assays:
D(2) dopamine receptor [1] = biological target: T1, D(2) dopamine receptor (Rattus norvegicus, UniProt P61169)
Description: Agonistic activity towards dopamine D2 receptor using radioligand [3H]quinpirole in rat striatal membranes

D(2) dopamine receptor [2] = biological target: D(2) dopamine receptor (Homo sapiens, UniProt P14416); test: biochemical
Description: Binding affinity towards human cloned dopamine (hD2s) receptors expressed in CHO cell membranes using [3H]spiperone

D(4) dopamine receptor [3] = biological target: T2, D(4) dopamine receptor (Homo sapiens, UniProt P21917); test: Binding affinity towards human cloned dopamine (hD4.4) receptor expressed in CHO cells using [3H]spiperone as radioligand; format: cell-based
T2 sequence (P21917 whole entry): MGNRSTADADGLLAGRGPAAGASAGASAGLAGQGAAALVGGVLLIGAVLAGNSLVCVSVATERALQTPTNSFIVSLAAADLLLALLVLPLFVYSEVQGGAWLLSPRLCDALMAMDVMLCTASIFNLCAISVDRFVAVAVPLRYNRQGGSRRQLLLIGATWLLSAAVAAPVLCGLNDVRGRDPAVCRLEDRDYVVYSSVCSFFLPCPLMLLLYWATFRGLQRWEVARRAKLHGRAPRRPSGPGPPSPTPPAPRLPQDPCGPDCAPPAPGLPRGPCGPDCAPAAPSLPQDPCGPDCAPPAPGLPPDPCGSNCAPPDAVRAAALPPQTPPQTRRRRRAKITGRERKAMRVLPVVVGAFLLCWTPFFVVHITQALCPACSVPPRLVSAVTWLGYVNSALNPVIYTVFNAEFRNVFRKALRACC

D(3) dopamine receptor = D(3) dopamine receptor (Homo sapiens, UniProt P35462); test: biochemical
D(3) dopamine receptor, sequence (P35462 whole entry): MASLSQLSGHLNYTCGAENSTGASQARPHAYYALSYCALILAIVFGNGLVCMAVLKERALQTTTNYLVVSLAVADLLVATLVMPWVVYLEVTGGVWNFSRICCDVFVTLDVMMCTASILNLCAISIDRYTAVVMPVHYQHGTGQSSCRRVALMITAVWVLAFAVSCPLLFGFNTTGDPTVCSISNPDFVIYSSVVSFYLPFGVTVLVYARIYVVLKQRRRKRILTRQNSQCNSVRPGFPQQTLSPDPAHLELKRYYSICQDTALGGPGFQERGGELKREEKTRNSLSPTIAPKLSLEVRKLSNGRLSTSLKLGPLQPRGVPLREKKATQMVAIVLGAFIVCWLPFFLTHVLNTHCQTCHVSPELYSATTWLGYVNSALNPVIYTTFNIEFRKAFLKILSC
Description: Binding affinity towards human cloned dopamine (hD3) receptor expressed in CHO cells using [3H]spiperone as radioligand

D(2) dopamine receptor [4] = biological target: T1, D(2) dopamine receptor; remark: listed apart in the source
Description: Antagonistic activity towards dopamine D2 receptor using radioligand [3H]spiperone in rat striatal membranes

D(4) dopamine receptor [5] = biological target: T2, D(4) dopamine receptor; test: Binding affinity towards human cloned Dopamine receptor D4.4 expressed in CHO cells using [3H]spiperone as radioligand; format: cell-based
[6] = biological target: T3, Adrenergic receptor alpha-1 (Homo sapiens, UniProt P35348+P25100+P35368); test: Binding affinity for Alpha-1 adrenergic receptor; format: protein assay
T3 sequence (P35348 whole entry): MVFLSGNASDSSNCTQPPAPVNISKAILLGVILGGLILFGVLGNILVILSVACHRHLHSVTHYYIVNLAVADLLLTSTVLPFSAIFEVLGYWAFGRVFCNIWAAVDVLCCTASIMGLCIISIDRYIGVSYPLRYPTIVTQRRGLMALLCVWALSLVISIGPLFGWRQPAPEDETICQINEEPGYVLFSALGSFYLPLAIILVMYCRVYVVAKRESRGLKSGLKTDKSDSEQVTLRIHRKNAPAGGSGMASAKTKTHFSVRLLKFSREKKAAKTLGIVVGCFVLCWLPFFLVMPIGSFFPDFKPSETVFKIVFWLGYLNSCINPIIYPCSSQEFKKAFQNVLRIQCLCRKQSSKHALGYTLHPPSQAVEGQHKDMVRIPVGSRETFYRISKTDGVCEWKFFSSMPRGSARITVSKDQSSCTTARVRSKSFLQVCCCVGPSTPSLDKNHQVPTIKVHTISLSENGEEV
T3 sequence (P25100 whole entry): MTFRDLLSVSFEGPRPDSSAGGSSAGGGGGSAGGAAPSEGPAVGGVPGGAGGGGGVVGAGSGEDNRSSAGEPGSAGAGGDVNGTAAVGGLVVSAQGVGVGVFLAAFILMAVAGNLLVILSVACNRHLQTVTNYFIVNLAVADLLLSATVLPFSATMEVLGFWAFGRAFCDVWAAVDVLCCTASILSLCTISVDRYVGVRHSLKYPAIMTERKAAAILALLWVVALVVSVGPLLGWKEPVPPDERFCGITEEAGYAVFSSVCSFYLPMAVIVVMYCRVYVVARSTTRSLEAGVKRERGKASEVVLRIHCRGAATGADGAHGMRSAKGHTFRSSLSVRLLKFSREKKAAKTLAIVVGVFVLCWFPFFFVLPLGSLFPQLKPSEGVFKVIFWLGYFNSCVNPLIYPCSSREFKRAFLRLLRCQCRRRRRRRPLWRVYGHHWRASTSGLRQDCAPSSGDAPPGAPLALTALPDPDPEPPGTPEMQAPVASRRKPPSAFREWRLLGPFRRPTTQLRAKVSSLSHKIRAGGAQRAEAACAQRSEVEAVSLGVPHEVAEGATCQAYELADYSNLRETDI
T3 sequence (P35368 whole entry): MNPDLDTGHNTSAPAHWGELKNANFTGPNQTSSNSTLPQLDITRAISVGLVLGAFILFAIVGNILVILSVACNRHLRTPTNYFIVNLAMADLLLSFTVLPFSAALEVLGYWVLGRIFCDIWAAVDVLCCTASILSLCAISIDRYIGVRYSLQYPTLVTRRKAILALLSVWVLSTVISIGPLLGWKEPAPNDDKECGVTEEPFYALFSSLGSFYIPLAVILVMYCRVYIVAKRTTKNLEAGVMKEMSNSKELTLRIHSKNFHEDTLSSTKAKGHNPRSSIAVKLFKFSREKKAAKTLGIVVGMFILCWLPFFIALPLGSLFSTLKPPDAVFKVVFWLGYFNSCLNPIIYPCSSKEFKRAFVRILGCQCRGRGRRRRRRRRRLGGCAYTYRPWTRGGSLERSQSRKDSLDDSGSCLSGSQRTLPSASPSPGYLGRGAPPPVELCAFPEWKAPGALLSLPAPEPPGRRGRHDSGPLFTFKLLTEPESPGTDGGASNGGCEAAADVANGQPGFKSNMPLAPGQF

[7] = biological target: T4, 5-hydroxytryptamine receptor 1A (Mus musculus, UniProt Q64264); test: Binding affinity for 5-hydroxytryptamine 1A receptor
T4 sequence (Q64264 whole entry): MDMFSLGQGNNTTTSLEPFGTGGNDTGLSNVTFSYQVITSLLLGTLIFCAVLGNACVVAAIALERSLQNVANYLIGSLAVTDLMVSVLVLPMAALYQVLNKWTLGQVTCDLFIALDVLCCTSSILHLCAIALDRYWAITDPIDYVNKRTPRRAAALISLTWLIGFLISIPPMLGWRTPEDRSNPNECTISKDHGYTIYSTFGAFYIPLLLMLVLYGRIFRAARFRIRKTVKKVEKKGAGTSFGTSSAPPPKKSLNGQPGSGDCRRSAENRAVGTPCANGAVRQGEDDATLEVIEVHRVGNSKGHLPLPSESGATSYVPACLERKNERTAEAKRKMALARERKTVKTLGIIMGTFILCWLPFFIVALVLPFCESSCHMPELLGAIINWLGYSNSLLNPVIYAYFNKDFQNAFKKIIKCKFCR

Mus musculus = test: Dose required to inhibit locomotor activity in mice when administered subcutaneously; format: functional; settings: sc

D(2) dopamine receptor (Homo sapiens, UniProt P14416), sequence (P14416 whole entry): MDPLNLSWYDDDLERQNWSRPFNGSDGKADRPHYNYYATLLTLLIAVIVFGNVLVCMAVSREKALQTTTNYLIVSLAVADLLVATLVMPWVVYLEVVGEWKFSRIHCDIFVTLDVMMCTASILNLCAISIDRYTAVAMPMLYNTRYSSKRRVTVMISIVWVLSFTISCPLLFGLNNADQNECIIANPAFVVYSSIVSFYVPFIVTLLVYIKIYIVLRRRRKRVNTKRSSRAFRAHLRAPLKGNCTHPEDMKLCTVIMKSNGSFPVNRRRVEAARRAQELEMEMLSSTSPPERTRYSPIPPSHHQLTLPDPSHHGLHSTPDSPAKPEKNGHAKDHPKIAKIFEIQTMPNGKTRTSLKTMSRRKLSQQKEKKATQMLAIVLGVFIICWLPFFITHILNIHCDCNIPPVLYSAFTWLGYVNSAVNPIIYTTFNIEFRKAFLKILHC
T1 sequence (P61169 whole entry): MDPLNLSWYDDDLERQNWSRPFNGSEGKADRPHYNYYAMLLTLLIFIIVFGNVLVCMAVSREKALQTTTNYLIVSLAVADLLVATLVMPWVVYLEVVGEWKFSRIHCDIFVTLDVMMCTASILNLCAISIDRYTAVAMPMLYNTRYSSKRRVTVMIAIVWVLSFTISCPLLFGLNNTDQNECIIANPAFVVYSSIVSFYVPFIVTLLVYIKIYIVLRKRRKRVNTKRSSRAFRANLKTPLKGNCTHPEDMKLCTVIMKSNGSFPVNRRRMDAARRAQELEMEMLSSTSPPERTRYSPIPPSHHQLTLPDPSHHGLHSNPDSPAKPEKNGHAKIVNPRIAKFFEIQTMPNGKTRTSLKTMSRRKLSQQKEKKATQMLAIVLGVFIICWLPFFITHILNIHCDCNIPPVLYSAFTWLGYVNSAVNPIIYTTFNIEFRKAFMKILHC

Row | SMILES | Ki (D(2) dopamine receptor [1]) | Ki (D(2) dopamine receptor [2]) | Ki (D(4) dopamine receptor [3]) | Ki (D(3) dopamine receptor) | Ki (D(2) dopamine receptor [4]) | Ki (D(4) dopamine receptor [5]) | Ki [6] | Ki [7] | ED50 (Mus musculus)
1 | Oc1ccc(OCCNCc2ccccc2)cc1 | 113 nM | > 10000 nM | 277 nM | > 5000 nM | – | – | – | – | –
2 | Oc1ccccc1N1CCN(Cc2ccccc2)CC1 | 64.7 nM | > 300 nM | – | > 400 nM | 118 nM | > 400 nM | – | – | –
3 | c1ccc(CN2CCN(c3ccccc3)CC2)cc1 | 16.2 nM | > 300 nM | – | > 400 nM | 124 nM | 267 nM | – | – | –
4 | Oc1ccccc1OCCNCc1ccccc1 | 9.6 nM | 456 nM | 297 nM | 281 nM | 191 nM | – | – | – | –
5 | CS(=O)(=O)Nc1cc(OCCNCc2cccs2)ccc1F | 19.7 nM | > 300 nM | – | > 400 nM | 11.7 nM | > 400 nM | – | – | –
6 | CS(=O)(=O)Nc1cc(OCCNCc2cccs2)ccc1Cl | 2.6 nM | 9 nM | 137 nM | 27.8 nM | 6 nM | – | – | – | –
7 | Oc1ccc(N2CCN(Cc3ccccc3)CC2)cc1 | 120 nM | > 300 nM | – | > 400 nM | – | 91.8 nM | – | – | –
8 | c1ccc(CNCCOc2ccccc2)cc1 | 68.4 nM | > 300 nM | 94 nM | > 400 nM | 241 nM | – | – | – | –
9 | Nc1cc(OCCNCc2ccccc2)ccc1Cl | 237 nM | > 1000 nM | 27.2 nM | > 1000 nM | – | – | – | – | –
10 | CS(=O)(=O)Nc1cc(OCCNCc2ccccc2)ccc1F | 7.9 nM | > 10000 nM | – | > 5000 nM | 24.1 nM | – | – | – | –
11 | Oc1cccc(OCCNCc2ccccc2)c1 | 3.6 nM | 75.8 nM | 80.6 nM | 11 nM | 101 nM | – | 5291 nM | 1780 nM | 0.08 mg/kg
12 | Oc1cccc(N2CCN(Cc3ccccc3)CC2)c1 | – | – | – | 28.9 nM | – | > 400 nM | > 1000 nM | > 1000 nM | 1.4 mg/kg
13 | CS(=O)(=O)Nc1cccc(OCCNCc2ccccc2)c1 | 4.4 nM | 37.6 nM | 500 nM | 42.5 nM | 29.3 nM | – | – | – | –
14 | CS(=O)(=O)Nc1cc(OCCNCc2ccccc2)ccc1Cl | 1.6 nM | 75.8 nM | – | 11 nM | 3 nM | – | – | – | –
